# Experiments:
# Type in all cases: cell-based, human
# T cells [1] = assay: T cell expansion in G-Rex static culture, TNC counts at day 10 harvest (ViCELL)
# Description: (§1) All cells were expanded and transduced, using a static expansion system, (scalable G-Rex®). Cryopreserved leukapheresis starting materials from healthy donors or cancer patients were thawed, washed, activated with CD3/CD28 magnetic Dynabeads, and CD3+ positive fraction was magnetically separated. The starting leukapheresis material was similar across the healthy donors. CD3+ cells ranged from 44-64%, all with an increased purity of 79-87% following positive isolation using anti CD3/CD28 Dynabeads. CD3+ phenotyping identified a range of stem cell memory (SCM) markers (CCR7+/CD45RA+) ranging from 11.6-57% in the CD8+ compartment between individuals. Enriched CD3+ T cells were seeded based on total nucleated cell (TNC) counts at 1.5×10^6 TNC/cm^2 density in the G-Rex® static cell expansion system device, in 10% of final culture volume using TexMACS+5% human AB serum (HABS) supplemented with 100 IU/ml IL-2. Transduction with vector expressing a heterologous TCR (recognising MAGE-A4) was performed 18-26 hours post addition of CD3/CD28 Dynabeads to the cells, using lentivirus (LV) vector at a MOI of 0.45. Media was then added to top up to the final culture volume, this was performed 17-24 hours post transduction with TexMACS+5% HABS+500 IU/ml IL-2. Cells were then incubated at 37° C., 5% CO2 for a further 8 days. MK-2206 was added to the media at defined intervals; in day 0 seeding media and supplemented in media used for day 2 media addition, or solely supplemented in media for day 2 media addition. The concentration of the compound varied for each experiment, 10 uM, 7.5 uM, 5 uM, 2.5 uM, 2 uM, 1.5 uM, 1 uM, 0.5 uM, 0.25 uM, 0.1 uM, 0.05 uM as dictated in the following examples. T cells were harvested 10 days post seeding. After bead removal, T-cells were counted by automated cell analysis (with ViCELL). Harvested cells were then frozen for later phenotypic and functional analysis as described.
# Healthy donor material (leukapheresis material comprising white blood cells separated from a donor sample of blood) was processed for culture in static expansion (G-Rex device) following the aforementioned process for a 10 day duration. The cells were cultured with MK-2206 (1.25, 2.5, 5.0, 10 uM) added to cultures on day 0+day 2 or day 2 alone (with the day 2 media addition). On harvest, Total Nucleated Cell (TNC) counts were performed using an automated cell counter (ViCELL) to provide expansion data, and flow cytometry performed to determine phenotype. The harvested cultures were frozen and later thawed for functional assessment, an antigen stimulated cytokine release assay (1.3 described above).
# The concentration of MK-2206 was tested in further titratration from 0.05 to 10 uM to fully determine optimal dosing and day 0(+2) and day 2 alone are both assessed to determine the optimal time of addition. Again, expansion, phenotype and cytokine production data has been assessed. An additional four donors were tested at the varying concentrations, to provide a full titration range in this study, 10 uM to 0.05 uM. All donors were tested in 10 M G-Rex following the described process and were harvested on Day 10. Expansion data considered the timepoint of addition of MK-2206; Day 0+2 and Day 2 alone.
# T cells [2] = assay: Memory phenotype flow cytometry (CCR7/CD45RA) of transduced CD8+ T cells at day 10 harvest
# Description: as §1, with “[…]).” for “ViCELL).”, “described. Flow cytometry was performed on healthy donor material on day 10 harvest from the described process to determine Memory Phenotype markers of cultured cells using CCR7 and CD45RA staining” for “described.”
# [3] = tested on: T-cells stimulated with MAGEA4-positive cell line A375; assay: Antigen-stimulated IFNγ release by ELISA, expanded T-cells co-cultured with A375 for 48 hours
# Protocol: Function of expanded T-cells was evaluated based on the levels of cytokine release by expanded T-cells following antigen-stimulation with the MAGEA4-expressing cell line, A375. A375 MAGEA4 positive target cells were counted using automated cell counter and seeded in a 96 well U-bottom plate at 30,000 viable nucleated cells (VNC) per well, in 100 uL volume per well, one day prior to T-cell stimulation and incubated overnight at 37° C., 5% CO2. Wells that were used as “T cells alone” control, received 100 uL R10 media (RPMI medium with 10% FBS and 1% Penicillin/Streptomycin) only. Following overnight incubation of target cells, harvested and frozen T-cells were thawed at 37° C. in the water bath and washed with R10 media. Cells were rested in R10 media at a density of 2×10^6 VNC/mL for 2 hours at 37° C., 5% CO2. After 2-hour rest, T-cells were counted using automated cell counter, and cultures were normalised to 35% transduction efficiency for all donors combining calculated amount of transduced and non-transduced VNC for each condition. […] Colorimetric read-out was analysed (BMG LABTECH FLUOstar Omega plate reader) at OD 450. […] For the cytokine release assays, the target and effector cells were co-cultured for 48 hours then the supernatants were collected and analysed for IFN gamma levels by ELISA. […]
# [4] = Day 0+2 addition, all concentrations 0.05-10 uM, across donors, FIG. 3A
smiles,measurement,setting,value
NC1(c2ccc(-c3nc4ccn5c(=O)[nH]nc5c4cc3-c3ccccc3)cc2)CCC1 [MK-2206],expansion (TNC counts),"T cells [1]; 10 uM, all timepoints for addition, FIG. 2",reduced expansion
same,TNC yield,"T cells [1]; Day 0(+2) addition, FIG. 2",low yield
same,limit of expansion decrease (fold change to untreated control),T cells [1]; [4],0.15 fold
same,limit of expansion increase (fold change to untreated control),T cells [1]; [4],1.5 fold
same,impact on expansion,"T cells [1]; Day 2 addition, 0.05-10 uM, FIG. 3B",no negative impact on expansion
same,concentration providing peak expansion,"T cells [1]; Day 2 addition, 3 donors, FIG. 3B",0.5 µM
same,expansion response relative to control,"T cells [1]; Day 2 addition, all conditions, FIG. 3B",1-2 fold
same,T cell expansion,"T cells [1]; MK-2206 added on Day 2, after activation on day 0 and transduction on day 1",Improved T cell expansion
same,TNC yield,"T cells [1]; day 2 alone addition, with exception of 10 uM, FIG. 2",improved TNC yield
same,expansion (TNC counts) compared to the untreated control,"T cells [1]; healthy donor material, lower concentrations of MK-2206 (1.25-10 uM tested), day 10 harvest, FIG. 2",increased expansion
same,CCR7+CD45RA+ populations at harvest compared to the untreated control,"T cells [2]; added on day 0+2 and day 2 alone, CD3+/Dextramer+/CD8+ compartment, FIG. 4",increased
same,EMRA population versus untreated control,T cells [2]; all concentrations tested,remains similar to the untreated control
same,CD62L expression,T cells [2]; cells cultured with MK-2206,increase
same,CCR7−CD45RA− effector memory (EM) populations,"T cells [2]; cells cultured with MK-2206, FIG. 4",decrease
same,IFN gamma production following antigen stimulation versus untreated control,"[3]; day 2 addition of MK-2206, FIG. 5",highest increase
same,IFN gamma production following antigen stimulation,"[3]; increasing MK-2206 concentration, >5 uM, FIG. 5",decrease
